Measured values as given in US4091006A, “Esters of 3-hydroxyindone compounds” (priority 1975, dated 1978).

Key:
[1] = tested on: adults and nymphal stages of the two-spotted mite; assay: Mite Foliage Spray Test; format: in vivo, Tetranychus urticae (Koch); conditions: 4 days
From the text: (§1) The test procedures were as follows:
(§2) Compositions were rated on the basis of percent kill with a rating of 1 indicating no mortality; 3 signifying an approximately 50% mortality and 5 indicating 100% mortality at the indicated dosage.

[2] = tested on: egg of the two-spotted mite; assay: Mite Ovicide Test; format: in vivo, Tetranychus urticae (Koch); conditions: spray on eggs, 4 days
From the text: as §1
The plants were allowed to dry thoroughly.
as §2

[3] = tested on: eggs of the two-spotted mite; assay: Fumigant toxicity, Method 1 (deposit in pie plate); format: in vivo; conditions: deposit approx. 160 μg per square cm, 4 days
Method: (§3) Two methods were used to evaluate fumigant properties:
Method 1: Fifty mg. of each compound were dissolved in 5 ml. of acetone and poured into a 20 cm. (bottom diameter) Pyrex No. 210 pie plate. The acetone was allowed to evaporate leaving a deposit of approximately 160 μg. per square cm. The plate was then placed in the bottom of a 50 pound metal lard container (about 30 cm. in diameter and 34 cm. high). Two excised bean plants, held in a 250 ml. Erlenmeyer flask containing 100 ml. of tap water and infested with eggs of the two-spotted mite, were placed in the center of the pie plate. The container was held in the insectary (temperature 80±5° F., 50±5% R. H.) for four days before mortality determinations were made.

[4] = tested on: egg forms of the two-spotted mite; assay: Fumigant toxicity, Method 2 (treated plants near untreated infested plants); format: in vivo; conditions: 500 ppm dip, 4 days
Method: as §3
Method 2: Excised bean plants infested with egg forms of the two-spotted mite were dipped in an aqueous preparation (500 ppm) of the test compound. The treated plants were transferred to 250 ml. Erlenmeyer flasks containing 100 ml. of tap water. Four flasks holding treated plants were evenly spaced around a similar flask in which were placed untreated mite-infested plants so that the leaves of the treated foliage were in close proximity (1-3 inches) to the untreated plants. Four days later mortality determinations were made.

[5] = tested on: Bean; assay: Phytotoxicity, bean; conditions: 2500 ppm, 10 days
Method: (§4) Experiments were also conducted to determine the phytotoxicity of representative enol ester compositions with respect to healthy fresh plants. […] The test plants were sprayed in accordance with the procedure described above for the Mite Foliage Spray Test so as to deliver approximately 100 milliliters of test solution to the leaves of each plant tested. The sprayed plants and controls were set aside for approximately 1 hour to allow the solutions to dry and were then placed in the greenhouse. After 10 days the plants were visually inspected to determine the extent of foliage injury. A rating of 1 indicates no perceptible injury; 5 indicates the plant was dead and ratings of 2, 3 and 4 indicate intermediate degrees of injury based upon the number and extent to which leaves were injured.

[6] = tested on: Corn; assay: Phytotoxicity, corn; conditions: 2500 ppm, 10 days
Method: as §4

[7] = tested on: Tomato; assay: Phytotoxicity, tomato; conditions: 2500 ppm, 10 days
Method: as §4

[8] = tested on: Cotton; assay: Phytotoxicity, cotton; conditions: 2500 ppm, 10 days
Method: as §4

[9] = tested on: Perennial rye grass, crabgrass, red root pigweed, mustard; assay: Preliminary Herbicide Seed Germination Test; conditions: each rated 1 (no injury) to 5 (no seedlings emerged)
From the text: The thus-prepared stock suspension contained 0.5 percent by weight of compound. The test concentrations employed in the tests described hereinbelow were obtained by diluting the stock suspension with water. The test procedures were as follows:
The following seeds were used in this test:
Crabgrass -- Digitaria san-
Mustard -- Brassica pincea var.
Each of above mixtures is rolled separately in 5 gallon containers for approximately one-half hour on ball mill to insure uniform mixing of seeds and soil. For each compound four 3-inch pots are filled with soil to within 11/2 inches of top of pots. To 2 of these pots are added 70 cc. of Mixture I. To the remaining 2 pots are added 70 cc. of Mixture II. The seed-soil mixture is tamped firmly, and the pots are removed to the greenhouse and watered lightly. About 2 hours after planting, 25 milliliters of the test formulation were added to each of 2 pots for each soil-seed mixture; i.e., one replicate of each seed mixture per concentration. An equal volume of a water solution containing acetone and an emulsifier in the same concentration as the herbicidal mixture but without the candidate herbicide is also added to each of the soil-seed mixtures. These pots are used as check or control units. The test compounds are formulated by standard procedure of solution in acetone, addition of an emulsifier, and dilution with water. Tests were conducted on all compositions at low concentration (100 ppm.). Certain compositions were also tested at high concentration (1000 ppm). The pots were held in the greenhouse and watered lightly until results were taken. Ten to twelve days after application of chemical, injury is noted for each species by comparing treated vs. untreated pots. Ratings are made at both the high and the low concentrations (1000 ppm and 100 ppm) according to the following designations:
4 = few seedlings emerged and/or very severe stunting
3 = moderate reduction in stand and/or moderate stunting
2 = very slight reduction in stand and/or slight stunting
1 = no injury; seedlings appear no different with respect to stand or growth than untreated controls
Accordingly, the maximum rating for one test seed species tested at both high and low concentration is 10 and the maximum possible total preemergence rating is 40 (10 for each of the four test seed species). […] In some tests the crabgrass experiment was omitted. In these tests the maximum total rating for species tested at both high and low concentrations is 30 and 15 for species tested only at low concentrations.

[10] = rating/maximum 20: 100 ppm only, four species
[11] = rating/maximum 15: 100 ppm only, crabgrass omitted
[12] = rating/maximum 40: 100 and 1000 ppm, four species, 10-12 days

Row | Compound | Mite Adult rating [1] | Mite Ova rating [2] | Fumigant Toxicity Method 1 [3] | Fumigant Toxicity Method 2 [4] | Phytotoxicity Rating, Bean [5] | Phytotoxicity Rating, Corn [6] | Phytotoxicity Rating, Tomato [7] | Phytotoxicity Rating, Cotton [8] | Herbicide (total preemergence rating) [9, 10] | Herbicide (total preemergence rating) [9, 11] | Herbicide (total preemergence rating) [9, 12]
1 | 2-(2',4',6'-Trimethylphenyl)-3-(neodecanoyloxy)indone | 5 (100% mortality) | 5 (100% mortality) | 1 | 1 | 2 | 2 | 1 | 1 | 10/20 |  | 
2 | CCCCC(CC)COC(=O)OC1=C(c2c(C)cc(C)cc2C)C(=O)c2ccccc21 (centres unmarked) [2-(2',4',6'-Trimethylphenyl)-3-(2-ethylhexyloxycarbonyloxy)indone] | 5 (100% mortality) | 5 (100% mortality) | 1 | 1 | 1 | 2 | 1 | 1 | 15/20 |  | 
3 | COC(=O)CCC(=O)OC1=C(c2c(C)cc(C)cc2C)C(=O)c2ccccc21 [2-(2',4',6'-Trimethylphenyl)-3-(3-methoxycarbonylpropionyloxy)indone] | 5 (100% mortality) | 5 (100% mortality) | 1 | 1 | 1 | 1 | 1 | 1 |  | 15/15 | 
4 | Cc1cc(C)c(C2=C(OC(=O)CCCCl)c3ccccc3C2=O)c(C)c1 [2-(2',4',6'-Trimethylphenyl)-3-(4-chlorobutyryloxy)indone] | 5 (100% mortality) | 5 (100% mortality) | 1 | 1 | 1 | 2 | 2 | 2 |  | 14/15 | 
5 | CC(=O)OC1=C(c2c(C)cc(C)cc2C)C(=O)c2ccccc21 [2-(2',4',6'-Trimethylphenyl)-3-(acetoxy)indone] | 5 (100% mortality) | 5 (100% mortality) | 5 (80-100% control) | 5 (80-100% control) |  |  |  |  |  |  | 39/40
6 | Cc1cc(C)c(C2=C(OC(=O)C3CCCCC3)c3ccccc3C2=O)c(C)c1 [2-(2',4',6'-Trimethylphenyl)-3-(cyclohexanoyloxy)indone] | 5 (100% mortality) | 5 (100% mortality) | 1 | 1 | 1 | 1 | 2 | 2 |  |  | 31/40
7 | Cc1cc(C)c(C2=C(OC(=O)CC3C=CCC3)c3ccccc3C2=O)c(C)c1 (centres unmarked) [2-(2',4',6'-Trimethylphenyl)-3-(cyclopent-2-en-1-ylacetoxy)indone] | 5 (100% mortality) | 5 (100% mortality) | 1 | 1 | 1 | 1 | 1 | 2 |  | 11/15 | 
8 | CCCCCCCCCCCCOC(=O)OC1=C(c2c(C)cc(C)cc2C)C(=O)c2ccccc21 [2-(2',4',6'-Trimethylphenyl)-3-(dodecyloxycarbonyloxy)indone] | 5 (100% mortality) | 5 (100% mortality) | 1 | 1 | 1 | 2 | 1 | 1 | 17/20 |  | 
9 | Cc1cc(C)c(C2=C(OC(=O)C3CC4C=CC3C4)c3ccccc3C2=O)c(C)c1 (stereo not drawn) [2-(2',4',6'-Trimethylphenyl)-3-(endo-exonorborn-5-en-2-carbonyloxy)indone] | 5 (100% mortality) | 5 (100% mortality) | 1 | 1 | 1 | 1 | 1 | 2 |  | 11/15 | 
10 | Cc1cc(C)c(C2=C(OC(=O)C(C)C)c3ccccc3C2=O)c(C)c1 [2-(2',4',6'-Trimethylphenyl)-3-(isobutyryloxy)indone] | 5 (100% mortality) | 5 (100% mortality) | 5 (80-100% control) | 5 (80-100% control) | 1 | 4 | 2 | 2 |  |  | 37/40
11 | COCC(=O)OC1=C(c2c(C)cc(C)cc2C)C(=O)c2ccccc21 [2-(2',4',6'-Trimethylphenyl)-3-(methoxyacetoxy)indone] | 5 (100% mortality) | 5 (100% mortality) | 1 | 1 | 1 | 1 | 1 | 1 |  | 15/15 | 
12 | CCCCCCCCCCCCCCCCCC(=O)OC1=C(c2c(C)cc(C)cc2C)C(=O)c2ccccc21 [2-(2',4',6'-Trimethylphenyl)-3-(octadecanoyloxy)indone] | 5 (100% mortality) | 5 (100% mortality) | 1 | 1 | 1 | 1 | 1 | 1 | 19/20 |  | 
13 | CCCCCCCCSC(=O)OC1=C(c2c(C)cc(C)cc2C)C(=O)c2ccccc21 [2-(2',4',6'-Trimethylphenyl)-3-(octylthiocarbonyloxy)indone] | 5 (100% mortality) | 5 (100% mortality) | 1 | 1 | 1 | 1 | 1 | 1 |  | 11/15 | 
14 | CCC(=O)OC1=C(c2c(C)cc(C)cc2C)C(=O)c2ccccc21 [2-(2',4',6'-Trimethylphenyl)-3-(propionyloxy)indone] | 5 (100% mortality) | 5 (100% mortality) | 5 (80-100% control) | 5 (80-100% control) | 1 | 2 | 2 | 1 |  |  | 32/40
15 | CC=CCCCCCCCC(=O)OC1=C(c2c(C)cc(C)cc2C)C(=O)c2ccccc21 [2-(2',4',6'-Trimethylphenyl)-3-(undec-9-enoyloxy)indone] | 5 (100% mortality) | 5 (100% mortality) | 1 | 1 | 2 | 2 | 2 | 1 | 19/20 |  | 
